# Assay results published in US10363239B2, “Method for inhibiting growth of cancer cells” (Pain Therapeutics, Inc., priority 2013, dated 2019).
# How the values were obtained:
# [1] = tested on: more than 65 receptors; assay: Standard binding assay on more than 65 receptors; details: 10 μM concentration
# [2] = tested on: glioblastoma cells (U-87 MG); assay: [3H]glucose uptake; format: cell-based, human
# Description: (§1) FIG. 1A through FIG. 1M illustrate the effects of various FLNA-binding compounds on glucose uptake in glioblastoma, melanoma, breast and pancreatic cancer cell lines, along with appropriate non-cancerous primary cell controls. Cells were grown in the absence or presence of 0.1-5 nM indicated compounds for 4 days. Following brief washes with PBS, cells were serum-deprived for 4 hours and then incubated in oxygenated Kreb's Ringer containing 0.1 μCi [^3H]glucose for 2 hours under constant oxygenation. The reaction was terminated by removal of the incubation medium, and cells were washed and scraped off to determine the amounts of [^3H]glucose in cells by scintillation spectrometry. […] N=5-6. […] . […] . To determine the effect of Compound C0105 on glucose utilization, the cancer and primary normal cells were plated extremely thinly (10%). Once cells attached, Compound C0105 was added at 0.1, 0.5, 1 or 5 nM in the medium twice daily (6 hours apart) for 4 days. The cells were serum-deprived (glucose deprived) for 2 hours. Cells were then rinsed with 1 ml PBS and glucose uptake was assessed by contacting the cells with [^3H]glucose (0.01 uCi/l ml) in Kreb's Ringer for 2 hours. Cells were then rinsed with 1 ml PBS 3 times, scraped off and their glucose content counted by liquid scintillation spectrophotometry.
# (§2) Both glioblastoma and melanoma cells were plated extremely thinly. Once cells attached, Compound C0105 was added at 0.1, 0.5, 1 and 5 nM, whereas the other compounds were present at 1 and 5 nM in the medium twice daily (6 hours apart) for 4 days. The cells were serum-deprived (glucose deprived) for 2 hours. Cells were then rinsed with 1 ml PBS and glucose uptake was assessed by contacting the cells with [3H]glucose (0.01 uCi/l ml) of Kreb's Ringer for 2 hours. Cells were then rinsed with 1 ml PBS 3 times, scraped off and their glucose contents counted by liquid scintillation spectrophotometry.
# [3] = tested on: melanoma cells (A2058); assay: [3H]glucose uptake; format: cell-based, human
# Description: as §1, §2
# [4] = tested on: primary lung fibroblasts; assay: [3H]glucose uptake; format: cell-based, human; details: C0105 0.1-5 nM, other compounds 1 or 5 nM; 4 days
# Description: as §1, §2
# [5] = tested on: glioblastoma cells; assay: Glucose deprivation-induced cell death (cell density); format: cell-based, human; details: 0.1 or 1 nM; up to 4 days
# Description: (§3) The effect of Compound C0105 on cell death induced by glucose withdrawal was assessed in glioblastoma and melanoma cells. Cells were grown to >90% confluence, washed and incubated in 0.1% fetal bovine serum (FBS) for 16 hours and incubated in glucose-free 0.1% FBS-containing medium without or with 0.1 or 1 nM C0105 for up to 4 days. Cell density was assessed at the indicated time point. Data are expressed as mean±S.E.M. of percentage change in cell density compared to cells grown in glucose- and 0.1% FBS-containing medium. […] N=5-6.
# (§4) In a separate series of studies, the effect of Compound C0105 on glucose dependence was assessed by changes in cell density. The cancer and primary normal cells were grown to >90% confluency. The cells were washed with PBS, incubated in 0.1% fetal bovine serum (FBS) for 16 hours and incubated in glucose-free 0.1% FBS-containing medium for up to 4 days in the presence of vehicle or 1 nM Compound C0105.
# [6] = tested on: melanoma cells; assay: as above; format: cell-based, human; details: 0.1 or 1 nM; up to 4 days
# Description: as §3, §4
# [7] = tested on: metastatic (liver) neuroendocrine tumor cells; assay: Cell proliferation by Ki67 and PCNA (Western blotting); format: cell-based, human; details: 1 nM; 4 days
# [8] = tested on: pS2152FLNA, FLNA-associated PTEN and PP2A in primary lung fibroblast cells; assay: pS2152FLNA and FLNA-associated PTEN and PP2A in anti-FLNA immunoprecipitate (Western blotting); format: cell-based, human; details: 0.1-5 nM; 4 days
# Description: The effect of contact with Compound C0105 on the levels of pS^2152FLNA and FLNA-associated phosphatases, PTEN and PP2A subclasses was determined in primary lung fibroblast cells. Cells were treated with vehicle and 0.1-5 nM Compound C0105 for 4 days. Cells were washed, solubilized and the resultant cell lysate was immunoprecipitated with anti-FLNA. The levels of pS^2152FLNA and FLNA-associated phosphatases, PTEN and PP2A subclasses in the anti-FLNA immunoprecipitate were determined by Western blotting. The density of protein bands was measured by densitometric scanning. […] N=4. **p<0.05, *p<0.01 compared to vehicle (open bars). […]
# The cell lysates were diluted 5-fold with immunoprecipitation buffer and immunoprecipitated with anti-FLNA, -Akt, -mTOR and -ERK2 as described previously [Talbot et al., J Clin Inv 122(4):1-23 (2012); Wang et al., J Neurosci 32(29):9773-9784 (2012)]. The levels of FLNA linkages, activated phosphorylated Akt (pS^473 and pT^308), phosphorylated mTOR (pS^2448) and phosphorylated ERK2 (pY/pT) were determined in anti-FLNA, -Akt, -mTOR and -ERK2 immunoprecipitates by Western blotting with appropriate antibodies directed against PTEN, PP2A, K-RAS, ras-GAP (FLNA linkages), pS^473Akt, pT^308Akt, pS^2448mTOR and pY/pT ERK2 (activation of Akt, mTOR and ERK2).
# [9] = tested on: MiaPaCa2 pancreatic cancer cell implants; assay: Xenograft tumor volume study
# [10] = C0105 0.1-5 nM, other compounds 1 and 5 nM, twice daily for 4 days
structure (smiles),measurement,setting,value
CN1CCC2(CC1)NCC(=O)N2Cc1ccccc1 [Compound C0105],Binding to any of more than 65 assayed receptors,[1],no significant binding
same,Reduction of glucose uptake,"[2]; 0.1 nM, 4 days",25%
same,"Inhibition of glucose uptake, maximal effect","[2]; 1 nM, 4 days",50%
same,EC50,"[2]; 4 days, read-out: EC50, inhibition of glucose uptake",~0.1 nM
same,Glucose utilization,[2]; [10],decreased the elevated glucose utilization
same,Inhibition of glucose uptake,"[3]; 0.1-5 nM, not dose-dependent",about 25%
same,Glucose utilization,[3]; [10],decreased the elevated glucose utilization
same,Glucose uptake / glucose content,[4],not changed
same,Cell death during glucose withdrawal,[5],reduced the amount of cell death
same,Cell death during glucose withdrawal,[6],reduced the amount of cell death
same,Cell proliferation (Ki67 and PCNA levels),[7],Inhibits Proliferation
same,FLNA-associated PTEN and PP2A levels,[8],does not affect
same,pS2152FLNA level,[8],does not affect
same,Tumor volume,[9]; 1 mg/kg twice daily orally for 20 days,arrested growth
same,Tumor volume,[9]; 10 mg/kg twice daily orally for 20 days,shrank tumors
same,Vasculature of tumor masses,[9]; 1 or 10 mg/kg twice daily orally,visibly reduced the vasculature of tumor masses
